Experimental findings from patent US11716992B2, “5A5B6C tricyclic spirolactone derivative, preparation method therefor and use thereof” (NANKAI UNIVERSITY, priority 2017, dated 2023) are described below.

For data set [1], the system named is Mythimna separate (Walker). Nature of the data set: Insecticidal activity against Mythimna separate (Walker). The settings on record: Mythimna, 100 μg/mL; read-out: insecticidal activity, Mythimna separate (Walker). It is filed as in vivo.
For data set [2], the system named is Helicoverpa armigera (Hübner). Nature of the data set: Insecticidal activity against Helicoverpa armigera (Hübner). It counts as in vivo. The settings on record: Helicoverpa armigera; 100 μg/mL; read-out: insecticidal activity, Helicoverpa armigera (Hübner).
The next data set relates to Ostrinia furnacalis. The data set can be described thus: Insecticidal activity against Ostrinia furnacalis. It is filed as in vivo. The settings on record: Ostrinia furnacalis; 100 μg/mL; read-out: insecticidal activity, Ostrinia furnacalis.
The test system of a further data set is Alternaria solani. Nature of the data set: Fungicidal activity, fungicide growth rate method, AS. It counts as cell-based. The settings on record: Alternaria solani, 50 μg/mL; read-out: fungicidal activity (growth inhibition rate), AS.
Another data set concerns Botrytis cinerea. Nature of the data set: Fungicidal activity, fungicide growth rate method, BC. It counts as cell-based. The settings on record: Botrytis cinerea, 50 μg/mL; read-out: fungicidal activity (growth inhibition rate), BC.
For a further data set, the system named is Cercospora arachidicola. Nature of the data set: Fungicidal activity, fungicide growth rate method, CA. It counts as cell-based. The following applies: Mycosphaerella arachidis, 50 μg/mL; read-out: fungicidal activity (growth inhibition rate), CA.
A further data set concerns wheat Gibberella zeae. Nature of the data set: microbe, parasite or virus in culture. The settings on record: Fusarium graminearum, read-out: fungicidal activity (growth inhibition rate), GZ, 50 μg/mL. It counts as cell-based.
Data set [3] deals with Phytophthora infestans (Mont.) de Bary. Nature of the data set: microbe, parasite or virus in culture. It counts as cell-based. The settings on record: Phytophthora infestans, read-out: fungicidal activity (growth inhibition rate), PI, 50 μg/mL.
A further data set deals with Physalospora piricola. The data set can be described thus: Fungicidal activity, fungicide growth rate method, PP. It counts as cell-based. The settings on record: 50 μg/mL; read-out: fungicidal activity (growth inhibition rate), PP.
A further data set has as its system Pellicularia sasakii. Nature of the data set: Fungicidal activity, fungicide growth rate method, PS. It is filed as cell-based. The settings on record: 50 μg/mL; read-out: fungicidal activity (growth inhibition rate), PS.
Another data set concerns Rhizoctonia cerealis. Nature of the data set: Fungicidal activity, fungicide growth rate method, RC. It counts as cell-based. The following applies: Ceratobasidium cereale, 50 μg/mL; read-out: fungicidal activity (growth inhibition rate), RC.
A further data set has as its system Caenorhabditis elegans. The data set can be described thus: Insecticidal activity against Caenorhabditis elegans. It counts as in vivo. The settings on record: Caenorhabditis elegans, 100 μg/mL; read-out: insecticidal activity, Caenorhabditis elegans.
A further data set concerns Sclerotinia sclerotiorum. The data set can be described thus: Fungicidal activity, fungicide growth rate method, SS. It counts as cell-based. The settings on record: Sclerotinia sclerotiorum, 50 μg/mL.
The test system of a further data set is Tobacco Mosaic Virus. Nature of the data set: Anti-TMV inactivation activity on tobacco plants. The settings on record: compound mixed with TMV solution 30 minutes, lesions checked three days later. It is filed as in vivo. More on the design: concentration or dose not given beside the values.
Data set [4] has as its system Apis mellifera ligustica Spin. The following applies: for Death number after 24 h / Death number after 48 h: per replicate of 10 bees.

Several values for one entry are separate records, joined by “and”; a condition that tells them apart may be missing. Identical values can stand only once. Like-named read-outs stand apart in the source and are kept apart here.

Usually melting point stands for the temperature of the solid-liquid transition.

`C=CC[C@@H]1C[C@]2(O)CCO[C@@]23C[C@@H](Cl)[C@H](O)C[C@H]13` [Zyj07-100] displayed a melting point of 134 to 136 °C. Moreover, in [1], the pest or weed control at 100 µg/mL was determined as 10%. The pest or weed control at 100 µg/mL in data set [2] was 0%. In addition, in the data set on Ostrinia furnacalis, the pest or weed control at 100 µg/mL came out at 0%. Moreover, the inhibition at 50 µg/mL in the data set with Alternaria solani is 14%. In addition, in the data set with Botrytis cinerea, the inhibition at 50 µg/mL was 14%. Also, in the data set with Cercospora arachidicola, the inhibition at 50 µg/mL was found to be 46%. In the data set on wheat Gibberella zeae, the inhibition at 50 µg/mL stood at 13%. Also, in data set [3], the inhibition at 50 µg/mL was 38%. Moreover, the inhibition at 50 µg/mL in the data set with Physalospora piricola was determined as 29%. The inhibition at 50 µg/mL with Pellicularia sasakii came to 23%. In addition, in the data set with Rhizoctonia cerealis, the inhibition at 50 µg/mL was determined as 0%.
`C=CC[C@@H]1C[C@@]2(OC(C)=O)C[C@@H](CC=C)[C@H]3C[C@@H]4O[C@@H]4C[C@@]32O1` [Zyj07-67-2] displayed a melting point of 100 to 102 °C. In addition, the pest or weed control at 100 µg/mL in data set [1] was 0%. Besides, the pest or weed control at 100 µg/mL in data set [2] is 0%. The pest or weed control at 100 µg/mL with Ostrinia furnacalis is 0%. Further, the pest or weed control at 100 µg/mL in the data set with Caenorhabditis elegans came out at 20%. In addition, the inhibition at 50 µg/mL in the data set on Alternaria solani was 0%. Moreover, the inhibition at 50 µg/mL in the data set with Botrytis cinerea is above 50%. For the same molecule, the inhibition at 50 µg/mL in the data set with Cercospora arachidicola stood at 24%. In the data set on wheat Gibberella zeae, the inhibition at 50 µg/mL came out at 0%. Also, the inhibition at 50 µg/mL in data set [3] stood at 25%. Also, the inhibition at 50 µg/mL in the data set with Physalospora piricola stood at 13%. Further, the inhibition at 50 µg/mL with Pellicularia sasakii is 36%. Also, the inhibition at 50 µg/mL in the data set on Rhizoctonia cerealis is 29%. In the data set on Sclerotinia sclerotiorum, this molecule displayed an inhibition at 50 µg/mL above 50%. In addition, the “TMV inactivation (anti-TMV activity)” value in the data set with Tobacco Mosaic Virus turned out to be 29%.
In turn, `C=CC[C@@H]1C[C@]2(O)CCO[C@@]23C[C@@H](O)[C@H](Cl)C[C@H]13` [Zyj07-101] yielded a melting point of 143 to 144 °C. Further, the pest or weed control at 100 µg/mL in data set [1] was above 30%. In [2], the pest or weed control at 100 µg/mL stood at 20%. The pest or weed control at 100 µg/mL with Ostrinia furnacalis stood at 15%. Also, the inhibition at 50 µg/mL in the data set on Alternaria solani is 5%. Besides, the inhibition at 50 µg/mL in the data set with Botrytis cinerea was above 50%. Besides, the inhibition at 50 µg/mL in the data set on Cercospora arachidicola was found to be 14%. For the same molecule, the inhibition at 50 µg/mL in the data set on wheat Gibberella zeae was 3%. The inhibition at 50 µg/mL in [3] was above 60%. The inhibition at 50 µg/mL in the data set with Physalospora piricola was above 50%. Also, in the data set with Pellicularia sasakii, the inhibition at 50 µg/mL came out at 0%. Also, in the data set on Rhizoctonia cerealis, the inhibition at 50 µg/mL is 29%.
In the case of `C=CC[C@@H]1C[C@]2(O)CCO[C@@]23C[C@H]2O[C@H]2C[C@H]13` [Zyj07-31-2], the pest or weed control at 100 µg/mL in [1] is above 30%; in data set [2] it was 0%; in the data set with Ostrinia furnacalis it was 0%; in the data set on Caenorhabditis elegans, 8%. The inhibition at 50 µg/mL with Alternaria solani was determined as 22%; in the data set on Botrytis cinerea it was 18%; in the data set on Cercospora arachidicola it was 27%; in the data set on wheat Gibberella zeae, 3%; in data set [3], 21%; in the data set on Physalospora piricola it was 31%. For the same molecule, the figures for the inhibition at 50 µg/mL in the data set with Pellicularia sasakii, with Rhizoctonia cerealis and with Sclerotinia sclerotiorum were 18%, 21% and above 50%, respectively. For the same molecule, the “TMV inactivation (anti-TMV activity)” value with Tobacco Mosaic Virus was 15%. Besides, the “Death rate after 48 h (%)” value was 0% in [4] (dosage 6.51 μg a.i./bee) and 10.0% in data set [4] (dosage 9.36 μg a.i./bee). The “Death number after 24 h” value in [4] (dosage 6.51 μg a.i./bee) and in data set [4] (dosage 9.36 μg a.i./bee) was 0 each time. In addition, the results for the “Death number after 48 h” value in data set [4] (dosage 6.51 μg a.i./bee) and in [4] (dosage 9.36 μg a.i./bee) were 0 and 1, respectively.
Consider `C=CC[C@@H]1C[C@]2(OC(C)=O)C[C@H](OC(C)=O)O[C@@]23C[C@H]2O[C@H]2C[C@H]13` [Zyj07-65-2], for which the pest or weed control at 100 µg/mL is above 30% in [1], 10% in data set [2], 5% in the data set with Ostrinia furnacalis and 17% with Caenorhabditis elegans. For the same molecule, the inhibition at 50 µg/mL in the data set on Alternaria solani was found to be 0%; with Botrytis cinerea it was 41%; in the data set with Cercospora arachidicola, 24%; with wheat Gibberella zeae it was 0%; in data set [3], 25%; with Physalospora piricola, 12%. In addition, the inhibition at 50 µg/mL in the data set on Pellicularia sasakii amounted to 0%; in the data set on Rhizoctonia cerealis, 7%; in the data set on Sclerotinia sclerotiorum, 24%. Moreover, in the data set with Tobacco Mosaic Virus, the “TMV inactivation (anti-TMV activity)” value is 29%. Besides, the “Death rate after 48 h (%)” value in data set [4] (dosage 9.57 μg a.i./bee) was found to be 5.0%; in data set [4] (dosage 10.9 μg a.i./bee) it was 0%. Besides, the “Death number after 24 h” value in data set [4] (dosage 9.57 μg a.i./bee) and in data set [4] (dosage 10.9 μg a.i./bee) was 0 each time. Besides, the “Death number after 48 h” value is 0 and 1 in [4] (dosage 9.57 μg a.i./bee); 0 in [4] (dosage 10.9 μg a.i./bee).
For the molecule `O=C1C[C@@]2(O)CC[C@H]3C[C@@H]4O[C@@H]4C[C@@]32O1` [Zyj07-102], the melting point was 119 to 120 °C. Further, the pest or weed control at 100 µg/mL in data set [1] was 0%. For the same molecule, the pest or weed control at 100 µg/mL in [2] was 0%. For the same molecule, in the data set with Ostrinia furnacalis, the pest or weed control at 100 µg/mL was found to be 0%. The inhibition at 50 µg/mL in the data set on Alternaria solani was determined as 0%. Further, the inhibition at 50 µg/mL in the data set on Botrytis cinerea came to 41%. Also, the inhibition at 50 µg/mL in the data set on Cercospora arachidicola is 14%. Also, in the data set on wheat Gibberella zeae, the inhibition at 50 µg/mL was 27%. Also, in data set [3], the inhibition at 50 µg/mL stood at 23%. In addition, in the data set on Physalospora piricola, the inhibition at 50 µg/mL came out at 42%. Also, in the data set with Pellicularia sasakii, the inhibition at 50 µg/mL was found to be 0%. Also, in the data set with Rhizoctonia cerealis, the inhibition at 50 µg/mL worked out at 0%. The inhibition at 50 µg/mL with Sclerotinia sclerotiorum is 0%. Besides, the “TMV inactivation (anti-TMV activity)” value in the data set with Tobacco Mosaic Virus turned out to be 14%.
